# ChEMBL document CHEMBL5608211, “Antibody-drug conjugates for targeted cancer therapy: Recent advances in potential payloads” (Eur J Med Chem, 2024)
# Key:
# [1] = test system: MDA-MB-435; experiment: Cytotoxicity against human MDA-MB-435 cells assessed as cell growth inhibition by measuring lethal concentration by MTT assay; type: functional; conditions: read-out: LC50 (the source's name)
# [2] = test system: A498; experiment: Cytotoxicity against human A498 cells assessed as cell growth inhibition by measuring lethal concentration by MTT assay; type: functional; conditions: read-out: LC50 (the source's name)
# [3] = test system: SK-MEL-2; experiment: Cytotoxicity against human SK-MEL-2 cells assessed as cell growth inhibition by measuring lethal concentration by MTT assay; type: functional; conditions: read-out: LC50 (the source's name)
# [4] = test system: SNB-19; experiment: Cytotoxicity against human SNB-19 cells assessed as cell growth inhibition by measuring lethal concentration by MTT assay; type: functional; conditions: read-out: LC50 (the source's name)
# [5] = test system: RPMI-8226; experiment: Cytotoxicity against human RPMI-8226 cells assessed as cell growth inhibition by measuring lethal concentration by MTT assay; type: functional; conditions: read-out: LC50 (the source's name)
# [6] = test system: SN12C; experiment: Cytotoxicity against human SN12C cells assessed as cell growth inhibition by measuring lethal concentration by MTT assay; type: functional; conditions: read-out: LC50 (the source's name)
# [7] = test system: PC-3; experiment: Cytotoxicity against human PC-3 cells assessed as cell growth inhibition by measuring lethal concentration by MTT assay; type: functional; conditions: read-out: LC50 (the source's name)
# [8] = test system: DU-145; experiment: Cytotoxicity against human DU-145 cells assessed as cell growth inhibition by measuring lethal concentration by MTT assay; type: functional; conditions: read-out: LC50 (the source's name)
# [9] = test system: SK-OV-3; experiment: Cytotoxicity against human SK-OV-3 cells assessed as cell growth inhibition by measuring lethal concentration by MTT assay; type: functional; conditions: read-out: LC50 (the source's name)
# [10] = test system: UACC-257; experiment: Cytotoxicity against human UACC-257 cells assessed as cell growth inhibition by measuring lethal concentration by MTT assay; type: functional; conditions: read-out: LC50 (the source's name)
# [11] = test system: NCI-H522; experiment: Cytotoxicity against human NCI-H522 cells assessed as cell growth inhibition by measuring lethal concentration by MTT assay; type: functional; conditions: read-out: LC50 (the source's name)
# [12] = test system: SW-620; experiment: Cytotoxicity against human SW620 cells assessed as cell growth inhibition by measuring lethal concentration by MTT assay; type: functional; conditions: read-out: LC50 (the source's name)
# [13] = test system: SK-MEL-5; experiment: Cytotoxicity against human SK-MEL-5 cells assessed as cell growth inhibition by measuring lethal concentration by MTT assay; type: functional; conditions: read-out: LC50 (the source's name)
# [14] = test system: HOP-62; experiment: Cytotoxicity against human HOP-62 cells assessed as cell growth inhibition by measuring lethal concentration by MTT assay; type: functional; conditions: read-out: LC50 (the source's name)
# [15] = test system: NCI-H460; experiment: Cytotoxicity against human NCI-H460 cells assessed as cell growth inhibition by measuring lethal concentration by MTT assay; type: functional; conditions: read-out: LC50 (the source's name)
# [16] = test system: A549; experiment: Cytotoxicity against human A549 cells assessed as cell growth inhibition by measuring lethal concentration by MTT assay; type: functional; conditions: read-out: LC50 (the source's name)
# [17] = test system: HT-29; experiment: Cytotoxicity against human HT-29 cells assessed as cell growth inhibition by measuring lethal concentration by MTT assay; type: functional; conditions: read-out: LC50 (the source's name)
# [18] = test system: KM12; experiment: Cytotoxicity against human KM12 cells assessed as cell growth inhibition by measuring lethal concentration by MTT assay; type: functional; conditions: read-out: LC50 (the source's name)
# [19] = test system: Hs-578T; experiment: Cytotoxicity against human Hs-578T cells assessed as cell growth inhibition by measuring lethal concentration by MTT assay; type: functional; conditions: read-out: LC50 (the source's name)
# [20] = test system: CCRF-CEM; experiment: Cytotoxicity against human CCRF-CEM cells assessed as cell growth inhibition by measuring lethal concentration by MTT assay; type: functional; conditions: read-out: LC50 (the source's name)
# [21] = test system: UACC-62; experiment: Cytotoxicity against human UACC-62 cells assessed as cell growth inhibition by measuring lethal concentration by MTT assay; type: functional; conditions: read-out: LC50 (the source's name)
# [22] = test system: ACHN; experiment: Cytotoxicity against human ACHN cells assessed as cell growth inhibition by measuring lethal concentration by MTT assay; type: functional; conditions: read-out: LC50 (the source's name)
# [23] = test system: OVCAR-3; experiment: Cytotoxicity against human OVCAR-3 cells assessed as cell growth inhibition by measuring lethal concentration by MTT assay; type: functional; conditions: read-out: LC50 (the source's name)
# [24] = test system: CAKI-1; experiment: Cytotoxicity against human CAKI-1 cells assessed as cell growth inhibition by measuring lethal concentration by MTT assay; type: functional; conditions: read-out: LC50 (the source's name)
# [25] = test system: OVCAR-8; experiment: Cytotoxicity against human OVCAR-8 cells assessed as cell growth inhibition by measuring lethal concentration by MTT assay; type: functional; conditions: read-out: LC50 (the source's name)
# [26] = test system: SNB-75; experiment: Cytotoxicity against human SNB-75 cells assessed as cell growth inhibition by measuring lethal concentration by MTT assay; type: functional; conditions: read-out: LC50 (the source's name)
# [27] = test system: T47D; experiment: Cytotoxicity against human T47D cells assessed as cell growth inhibition by measuring lethal concentration by MTT assay; type: functional; conditions: read-out: LC50 (the source's name)
# [28] = test system: EKVX; experiment: Cytotoxicity against human EKVX cells assessed as cell growth inhibition by measuring lethal concentration by MTT assay; type: functional; conditions: read-out: LC50 (the source's name)
# [29] = test system: SF-539; experiment: Cytotoxicity against human SF-539 cells assessed as cell growth inhibition by measuring lethal concentration by MTT assay; type: functional; conditions: read-out: LC50 (the source's name)
# [30] = test system: IGROV-1; experiment: Cytotoxicity against human IGROV-1 cells assessed as cell growth inhibition by measuring lethal concentration by MTT assay; type: functional; conditions: read-out: LC50 (the source's name)
# [31] = test system: SK-MEL-28; experiment: Cytotoxicity against human SK-MEL-28 cells assessed as cell growth inhibition by measuring lethal concentration by MTT assay; type: functional; conditions: read-out: LC50 (the source's name)
# [32] = test system: M14; experiment: Cytotoxicity against human M14 cells assessed as cell growth inhibition by measuring lethal concentration by MTT assay; type: functional; conditions: read-out: LC50 (the source's name)
# [33] = test system: U-251; experiment: Cytotoxicity against human U-251 cells assessed as cell growth inhibition by measuring lethal concentration by MTT assay; type: functional; conditions: read-out: LC50 (the source's name)
# [34] = test system: BT-549; experiment: Cytotoxicity against human BT-549 cells assessed as cell growth inhibition by measuring lethal concentration by MTT assay; type: functional; conditions: read-out: LC50 (the source's name)
# [35] = test system: COLO 205; experiment: Cytotoxicity against human COLO 205 cells assessed as cell growth inhibition by measuring lethal concentration by MTT assay; type: functional; conditions: read-out: LC50 (the source's name)
# [36] = Cytotoxicity against human […] cells assessed as cell growth inhibition by measuring lethal concentration by MTT assay; type: functional; conditions: read-out: LC50 (the source's name)
# [37] = test system: TK-10; experiment: Cytotoxicity against human TK-10 cells assessed as cell growth inhibition by measuring lethal concentration by MTT assay; type: functional; conditions: read-out: LC50 (the source's name)
# [38] = test system: NCI-H226; experiment: Cytotoxicity against human NCI-H226 cells assessed as cell growth inhibition by measuring lethal concentration by MTT assay; type: functional; conditions: read-out: LC50 (the source's name)
# [39] = test system: OVCAR-5; experiment: Cytotoxicity against human OVCAR-5 cells assessed as cell growth inhibition by measuring lethal concentration by MTT assay; type: functional; conditions: read-out: LC50 (the source's name)
# [40] = test system: HCT-116; experiment: Cytotoxicity against human HCT-116 cells assessed as cell growth inhibition by measuring lethal concentration by MTT assay; type: functional; conditions: read-out: LC50 (the source's name)
# [41] = test system: 786-0; experiment: Cytotoxicity against human 786-0 cells assessed as cell growth inhibition by measuring lethal concentration by MTT assay; type: functional; conditions: read-out: LC50 (the source's name)
# [42] = test system: UO-31; experiment: Cytotoxicity against human UO-31 cells assessed as cell growth inhibition by measuring lethal concentration by MTT assay; type: functional; conditions: read-out: LC50 (the source's name)
# [43] = test system: HL-60; experiment: Cytotoxicity against human HL-60 cells assessed as cell growth inhibition by measuring lethal concentration by MTT assay; type: functional; conditions: read-out: LC50 (the source's name)
# [44] = test system: SF-295; experiment: Cytotoxicity against human SF-295 cells assessed as cell growth inhibition by measuring lethal concentration by MTT assay; type: functional; conditions: read-out: LC50 (the source's name)
# [45] = test system: NCI-H23; experiment: Cytotoxicity against human NCI-H23 cells assessed as cell growth inhibition by measuring lethal concentration by MTT assay; type: functional; conditions: read-out: LC50 (the source's name)
# [46] = test system: Malme-3M; experiment: Cytotoxicity against human Malme-3M cells assessed as cell growth inhibition by measuring lethal concentration by MTT assay; type: functional; conditions: read-out: LC50 (the source's name)
# [47] = test system: MDA-N; experiment: Cytotoxicity against human MDA-N cells assessed as cell growth inhibition by measuring lethal concentration by MTT assay; type: functional; conditions: read-out: LC50 (the source's name)
# [48] = test system: NCI/ADR-RES; experiment: Cytotoxicity against human MCF7ADR cells assessed as cell growth inhibition by measuring lethal concentration by MTT assay; type: functional; conditions: read-out: LC50 (the source's name)
# [49] = test system: HCT-15; experiment: Cytotoxicity against human HCT-15 cells assessed as cell growth inhibition by measuring lethal concentration by MTT assay; type: functional; conditions: read-out: LC50 (the source's name)
# [50] = test system: OVCAR-4; experiment: Cytotoxicity against human OVCAR-4 cells assessed as cell growth inhibition by measuring lethal concentration by MTT assay; type: functional; conditions: read-out: LC50 (the source's name)
# [51] = test system: HCC 2998; experiment: Cytotoxicity against human HCC 2998 cells assessed as cell growth inhibition by measuring lethal concentration by MTT assay; type: functional; conditions: read-out: LC50 (the source's name)
# [52] = test system: HOP-92; experiment: Cytotoxicity against human HOP-92 cells assessed as cell growth inhibition by measuring lethal concentration by MTT assay; type: functional; conditions: read-out: LC50 (the source's name)
# [53] = test system: SF-268; experiment: Cytotoxicity against human SF-268 cells assessed as cell growth inhibition by measuring lethal concentration by MTT assay; type: functional; conditions: read-out: LC50 (the source's name)
# [54] = test system: MOLT-4; experiment: Cytotoxicity against human MOLT-4 cells assessed as cell growth inhibition by measuring lethal concentration by MTT assay; type: functional; conditions: read-out: LC50 (the source's name)
# [55] = test system: MES-SA; experiment: Cytotoxicity against human MES-SA cells assessed as inhibition of cell growth incubated for 72 hrs by CellTiter-Glo luminescent assay; type: functional, cell-based
# [56] = test system: SK-BR-3; experiment: Cytotoxicity against human SK-BR-3 cells incubated for 144 hrs by CellTiter-Glo luminescent assay; type: functional, cell-based; conditions: SK-BR-3, 144 h
smiles,measurement,setting,value
C=C1C[C@H]2C=Nc3cc(OCCCCCCCCCCOc4cc5c(cc4OC)C(=O)N4CC(=C)C[C@H]4C=N5)c(OC)cc3C(=O)N2C1,CC50,[1],0.14 nM
same,CC50,[2],0.14 nM
same,CC50,[3],0.14 nM
same,CC50,[4],0.14 nM
same,CC50,[5],0.14 nM
same,CC50,[6],0.14 nM
same,CC50,[7],0.14 nM
same,CC50,[8],0.14 nM
same,CC50,[9],0.14 nM
same,CC50,[10],0.14 nM
same,CC50,[11],0.14 nM
same,CC50,[12],0.14 nM
same,CC50,[13],0.14 nM
same,CC50,[14],0.14 nM
same,CC50,[15],0.14 nM
same,CC50,[16],0.14 nM
same,CC50,[17],0.14 nM
same,CC50,[18],0.14 nM
same,CC50,[19],0.14 nM
same,CC50,[20],0.14 nM
same,CC50,[21],0.14 nM
same,CC50,[22],0.14 nM
same,CC50,[23],0.14 nM
same,CC50,[24],0.14 nM
same,CC50,[25],0.14 nM
same,CC50,[26],0.14 nM
same,CC50,[27],0.14 nM
same,CC50,[28],0.14 nM
same,CC50,[29],0.14 nM
same,CC50,[30],0.14 nM
same,CC50,[31],0.14 nM
same,CC50,[32],0.14 nM
same,CC50,[33],0.14 nM
same,CC50,[34],0.14 nM
same,CC50,[35],0.14 nM
same,CC50,[36],0.14 nM
same,CC50,[37],0.14 nM
same,CC50,[38],0.14 nM
same,CC50,[39],0.14 nM
same,CC50,[40],0.14 nM
same,CC50,[41],0.14 nM
same,CC50,[42],0.14 nM
same,CC50,[43],0.14 nM
same,CC50,[44],0.14 nM
same,CC50,[45],0.14 nM
same,CC50,[46],0.14 nM
same,CC50,[47],0.14 nM
same,CC50,[48],0.14 nM
same,CC50,[49],0.14 nM
same,CC50,[50],0.14 nM
same,CC50,[51],0.14 nM
same,CC50,[52],0.14 nM
same,CC50,[53],0.14 nM
same,CC50,[54],0.14 nM
COc1c2c(c(O)c3c4c(c(C)cc13)C1O[C@@]3(C(OC)OC)OC1[C@@](O[C@H]1C[C@@H](O)[C@@](O)(C(C)=O)[C@@H](C)O1)(O4)C31CO1)C(=O)[C@@H](C)C[C@@H]2O[C@H]1C[C@@](C)(O)[C@H](OC(C)=O)[C@@H](C)O1 (stereo partly specified),IC50,[55],0.74 nM
Cc1cccc2c(O)cc3c(c12)[C@H](CCl)CN3C(=O)c1cn2cc(NC(=O)c3ccc(O)cc3)ccc2n1,IC50,[56],0.09 nM
